Reference: paper PMC11181328 (Journal of Medicinal Chemistry, 2024)
Read-outs that look alike come from different tables or passages of the source.

Legend:
in vitro [1] = settings: human, s9
MOR = MOR (Mus musculus, UniProt P42866); experiment: Competitive radioligand binding assay, MOR; parameters: expressed in transfected cells; membrane homogenate; settings: for radioligand binding affinity (Ki, nM) MOR: [3H]naloxone, mMOR-CHO membranes
KOR [2] = target: T1, KOR (Mus musculus, UniProt P33534); experiment: [35S]-GTPγS functional assay, KOR; assay type: biochemical; settings: for EC50: mKOR-CHO membranes; for Emax: percent of U50,488 full agonist control
T1 construct: expressed in transfected cells; membrane homogenate

KOR [3] = target: T1, KOR; experiment: Competitive radioligand binding assay, KOR; settings: for radioligand binding affinity (Ki, nM) KOR: [3H]diprenorphine, mKOR-CHO membranes; for selectivity ratio δ/κ / selectivity ratio μ/κ: ratio of Ki values
[4] = Drug distribution study (brain and plasma, LC-MS/MS); assay type: in vivo, mouse; settings: 0.1 mg/kg s.c.; for Kp at 5 min / Kp at 10 min / Kp at 0.5 h / Kp at 1 h: Swiss Webster, mouse, sc, read-out: B/P (brain-to-plasma concentration ratio); for Kp at 0.5 h: 30 min; for Kp at 1 h: 60 min
Protocol: To examine the potential for these compounds to exert their effects on the central nervous system, a drug distribution study monitoring blood–brain barrier penetration was used. […] Plasma and brain homogenate were then analyzed via liquid chromatography with tandem mass spectrometry (LC-MS/MS) to allow calculation of brain-to-plasma ratios.[78]
The test compound was administered s.c., and a group of Swiss Webster mice was euthanized by decapitation at each time point (5, 10, 30, 60 min post injection) allowing whole brain and blood samples to be harvested. Brain samples were washed with saline to ensure removal of any blood on the isolated brain and were then immersed in 300 μL saline. Blood samples were centrifuged for 10 min (15,000g; 4 °C) to collect plasma. Brain and plasma samples were stored at −80 °C until further analysis.
Identification and quantification of test compound in mouse brain and plasma were performed using a modification of a previously described method with an internal standard of naloxone-d5.[126] Compounds were extracted from both blood and brain by a liquid/liquid extraction. Briefly, brain tissue samples were homogenized 1-part tissue to 3-parts water. Seven-point calibration curves (10–1000 ng/mL or ng/g) in plasma, drug free control, a negative control without internal standard in plasma and brain, and quality control specimens in plasma and brain (30, 300, and 750 ng/mL or ng/g) were prepared and analyzed with each batch of samples. […], was added at 10 ng/mL concentration to aliquots of either 100 μL for blood or 400 μL for brain homogenate to each calibrator, control, or specimen except the negative control. To these samples, 0.5 mL of saturated carbonate/bicarbonate buffer (1:1, pH 9.5) and 2.0 mL of chloroform/2-propanol (8:2) were added. The samples were then mixed and centrifuged. The top, aqueous layer was aspirated, and the organic layer was transferred to a clean test tube and evaporated to dryness under nitrogen. The samples were then reconstituted in 80:[…] and transferred to autosampler vials for analysis. The chromatographic separation of test compounds and naloxone-d5 was accomplished using a Shimadzu Nexera X2 liquid chromatography system and a Zorbax XDB-C18 4.6 × 75 mm, 3.5 μm column (Agilent Technologies, Santa Clara, CA). The mobile phases consisted of (A) water with 1 g/L ammonium formate and 0.1% formic acid, and (B) methanol. The flow rate was set to 1 mL/min. The mobile phase started with 20% B and was increased to 80% B at 1.0 min and held constant for 1.5 min before returning to 20% B. The system detector was a Sciex 6500 QTRAP system with an IonDrive Turbo V source for TurboIonSpray (Sciex, Ontario, Canada) that had the curtain gas flow rate set at 30 mL/min and the ion source gases 1 and 2 at 60 mL/min. The source temperature was set at 650 °C with an ionspray voltage was 5500 V. The declustering potential was 58 eV.
The primary dependent measures are (1) the plasma concentration of the test compound (μg/mL), (2) the brain concentration of the test compound (μg/g), and (3) the brain-to-plasma concentration ratio calculated as [brain]/[plasma]. Concentrations were determined by a linear regression plot based on peak ratios of the calibrators. Data are shown as mean ± SEM. Data were compared using one-way ANOVA as appropriate and a significant ANOVA was followed by a Dunnet’s post hoc test as appropriate. Statistical significance was defined as p < 0.05.

male Swiss Webster mice [5] = experiment: Warm-water tail immersion assay, time course study; assay type: in vivo, mouse; settings: for onset of antinociceptive effects: s.c.
[6] = system: male and female Sprague–Dawley rats; settings: intravenous, FR5 schedule of reinforcement, 2 h sessions
DOR [7] = target: T2, DOR (Homo sapiens, UniProt P41143); experiment: Competitive radioligand binding assay, DOR
T2 construct: expressed in transfected cells; membrane homogenate

DOR [8] = target: T2, DOR; experiment: [35S]-GTPγS functional assay, DOR; assay type: biochemical; settings: for EC50: hDOR-CHO membranes; for Emax: percent of SNC80 full agonist control
male Swiss Webster mice [9] = experiment: Warm-water tail immersion assay, receptor selectivity study; assay type: in vivo, mouse; settings: for antagonism of antinociceptive effects by nor-BNI (KOR antagonist) pretreatment: 10 mg/kg nor-BNI s.c. 24 h prior to 0.1 mg/kg test compound s.c. (23 also 0.05 mg/kg); for antagonism of antinociceptive effects by β-FNA (MOR antagonist) pretreatment: 10 mg/kg β-FNA s.c. 24 h prior to 0.1 mg/kg test compound s.c.; for antagonism of antinociceptive effects by NTI (DOR antagonist) pretreatment: 15 mg/kg NTI s.c. 30 min prior to 0.1 mg/kg test compound s.c. (23 also 0.05 mg/kg); for antagonism of antinociceptive effects by NTI and nor-BNI pretreatment together: nor-BNI 10 mg/kg + NTI 15 mg/kg s.c. prior to test compound
male Swiss Webster mice [10] = experiment: Warm-water tail immersion assay, agonism (single dose screen and potency); assay type: in vivo, mouse; settings: for ED50: Mus musculus, sc, read-out: potency ED50 [95% CI] mg/kg, 20 min prior to tail withdrawal latency measurement, male Swiss Webster mice; for ED50 / ED75: s.c.; for ED75: warm-water tail immersion; for percent MPE: single dose 10 mg/kg s.c., withdrawal latency 20 min after administration
in vitro [11] = settings: Sprague-Dawley, rat, s9
[12] = warm water tail immersion studies (Figure 3)

CN(C(=O)/C=C/c1ccco1)[C@H]1CC[C@@]2(O)[C@H]3Cc4ccc(O)c5c4[C@@]2(CCN3CC2CC2)[C@H]1O5.Cl [Compound 21, 17-Cyclopropylmethyl-3,14β-dihydroxy-4,5α-epoxy-6α-[(2E)-3′-(furan-2″-yl)-N-methylprop-2-enamido]morphinan Hydrochloride]
half-life (in vitro [1]): > 2 h
microsomal CLint (in vitro [1]): < 5.8 µL/min/mg
Ki (MOR): 200 ± 20 pM
radioligand binding affinity (Ki, nM) MOR (MOR): subnanomolar
EC50 (KOR [2]): 40 pM
Emax (KOR [2]): 107 ± 2.6%
Ki (KOR [3]): 140 ± 20 pM
radioligand binding affinity (Ki, nM) KOR (KOR [3]): subnanomolar
selectivity ratio δ/κ (KOR [3]): 7
selectivity ratio μ/κ (KOR [3]): 1
Selectivity Ratio MOR/KOR (KOR [3]; supplement csv): 1.43
time point of highest plasma concentration [4]: 5 min
Kp at 5 min ([4]; brain and plasma): 0.027
Kp at 10 min ([4]; brain and plasma): 0.186
Kp at 0.5 h ([4]; brain and plasma): 0.633
Kp at 1 h ([4]; brain and plasma): 0.938
antinociceptive effects significant until (time postinjection) (male Swiss Webster mice [5]; 0.1 mg/kg s.c.): 3 h
duration of action (male Swiss Webster mice [5]; 0.1 mg/kg s.c.): 3 h
onset of antinociceptive effects (male Swiss Webster mice [5]): approximately 30 min
duration of action (male Swiss Webster mice [5]; [12]): > 3 h
reinforcing effect (number of infusions earned versus saline) [6]: no dose maintained a significant number of infusions earned above saline
Ki (DOR [7]): 930 ± 210 pM
radioligand binding affinity (Ki, nM) DOR (DOR [7]; [3H]diprenorphine, hDOR-CHO membranes): subnanomolar
EC50 (DOR [8]): 1280 ± 280 pM
Emax (DOR [8]): > 80%
antagonism of antinociceptive effects by nor-BNI (KOR antagonist) pretreatment (male Swiss Webster mice [9]): antagonized
antagonism of antinociceptive effects by β-FNA (MOR antagonist) pretreatment (male Swiss Webster mice [9]): not antagonized by β-FNA
antagonism of antinociceptive effects by NTI (DOR antagonist) pretreatment (male Swiss Webster mice [9]): antagonized
antagonism of antinociceptive effects by NTI and nor-BNI pretreatment together (male Swiss Webster mice [9]): seemed to compound the decrease
ED50 (male Swiss Webster mice [10]): 0.051 mg/kg
ED75 (male Swiss Webster mice [10]): 0.1 mg/kg
percent MPE (male Swiss Webster mice [10]): ≥ 80%
half-life at 1 h, 1 µM (in vitro [11]): 1.16 h
microsomal CLint at 1 h, 1 µM (in vitro [11]): 10.1 µL/min/mg

CN(C(=O)/C=C/c1ccco1)[C@@H]1CC[C@@]2(O)[C@H]3Cc4ccc(O)c5c4[C@@]2(CCN3CC2CC2)[C@H]1O5.Cl [Compound 23, 17-Cyclopropylmethyl-3,14β-dihydroxy-4,5α-epoxy-6β-[(2E)-3′-(furan-2″-yl)-N-methylprop-2-enamido]morphinan Hydrochloride]
half-life (in vitro [1]): > 2 h
microsomal CLint (in vitro [1]): < 5.8 µL/min/mg
Ki (MOR): 780 ± 50 pM
radioligand binding affinity (Ki, nM) MOR (MOR): subnanomolar
EC50 (KOR [2]): 140 ± 20 pM
Emax (KOR [2]): 106.5 ± 0.7%
Ki (KOR [3]): 220 ± 30 pM
radioligand binding affinity (Ki, nM) KOR (KOR [3]): subnanomolar
selectivity ratio δ/κ (KOR [3]): 36
selectivity ratio μ/κ (KOR [3]): 4
time point of highest plasma concentration [4]: 5 min
Kp at 5 min ([4]; brain): 0.05
Kp at 10 min ([4]; brain): 0.762
Kp at 0.5 h ([4]; brain): 0.645
Kp at 1 h ([4]; brain): 1.45
antinociceptive effects significant until (time postinjection) (male Swiss Webster mice [5]; 0.05 mg/kg s.c.): 3 h
antinociceptive effects significant until (time postinjection) (male Swiss Webster mice [5]; 0.1 mg/kg s.c.): 6 h
duration of action (male Swiss Webster mice [5]; 0.5 mg/kg s.c.): 3 h
onset of antinociceptive effects (male Swiss Webster mice [5]): approximately 30 min
duration of action (male Swiss Webster mice [5]; [12]): > 3 h
reinforcing effect (number of infusions earned versus saline) [6]: no dose maintained a significant number of infusions earned above saline
Ki (DOR [7]): 7930 ± 1020 pM
EC50 (DOR [8]): 16400 ± 3250 pM
Emax (DOR [8]): > 80%
antagonism of antinociceptive effects by nor-BNI (KOR antagonist) pretreatment (male Swiss Webster mice [9]): slight, nonsignificant decrease
antagonism of antinociceptive effects by β-FNA (MOR antagonist) pretreatment (male Swiss Webster mice [9]): not antagonized by β-FNA
antagonism of antinociceptive effects by NTI (DOR antagonist) pretreatment (male Swiss Webster mice [9]): antagonized by NTI
antagonism of antinociceptive effects by NTI and nor-BNI pretreatment together (male Swiss Webster mice [9]): enhanced antagonism
ED50 (male Swiss Webster mice [10]): 0.01 mg/kg
ED75 (male Swiss Webster mice [10]): 0.05 mg/kg
percent MPE (male Swiss Webster mice [10]): ≥ 80%
half-life (in vitro [11]): > 2 h
microsomal CLint (in vitro [11]): < 5.8 µL/min/mg
